Usually speed of sound stands for how fast a sound wave travels through the sample. In general, mass density refers to the mass of a sample divided by its volume.

Numbers after ± are expanded uncertainties.

The conditions of the data set: 101.33 kPa, Liquid; for speed of sound: Linear variable-path acoustic interferometer; for mass density: Vibrating tube method.

Turning to `CCn1cc[n+](C)c1.F[B-](F)(F)F` [1-ethyl-3-methylimidazolium tetrafluoroborate], the speed of sound by setting is: (293.15 K) 1631 ± 2.6 m/s; (298.15 K) 1619.4 ± 2.6 m/s; (303.15 K) 1607.6 ± 2.6 m/s; (308.15 K) 1596.3 ± 2.6 m/s. For the same compound, the mass density by setting is: (293.15 K) 1283.89 ± 1.5 kg/m3; (298.15 K) 1279.91 ± 1.5 kg/m3; (303.15 K) 1276.26 ± 1.5 kg/m3; (308.15 K) 1272.07 ± 1.4 kg/m3.
On to `Cc1ccccn1` [2-methylpyridine], for which the speed of sound stood at 1400.5 ± 2.5 m/s (293.15 K), 1380.1 ± 2.5 m/s (298.15 K), 1361 ± 2.5 m/s (303.15 K) and 1339.9 ± 2.5 m/s (308.15 K). The mass density (293.15 K) stood at 944.401 ± 0.77 kg/m3, the mass density (298.15 K) was determined as 939.802 ± 0.77 kg/m3, the mass density (303.15 K) turned out to be 935.117 ± 0.76 kg/m3 and the mass density (308.15 K) was 930.414 ± 0.76 kg/m3.
Regarding `Cc1cccnc1` [3-methylpyridine], the speed of sound is given as 1445.9 ± 1.8 m/s (293.15 K), 1424 ± 1.8 m/s (298.15 K), 1404 ± 1.8 m/s (303.15 K) and 1384 ± 1.8 m/s (308.15 K). For the same compound, the mass density runs as follows: (293.15 K) 956.581 ± 0.23 kg/m3; (298.15 K) 952.002 ± 0.23 kg/m3; (303.15 K) 947.449 ± 0.23 kg/m3; (308.15 K) 942.831 ± 0.23 kg/m3.
Turning to `Cc1ccncc1` [4-methylpyridine], the speed of sound turned out to be 1451.1 ± 1.8 m/s (293.15 K), 1431.5 ± 1.8 m/s (298.15 K), 1410.7 ± 1.8 m/s (303.15 K) and 1389.9 ± 1.8 m/s (308.15 K). Further, the mass density was 955.099 ± 0.23 kg/m3 (293.15 K), 950.179 ± 0.23 kg/m3 (298.15 K), 945.413 ± 0.23 kg/m3 (303.15 K) and 940.821 ± 0.23 kg/m3 (308.15 K).
`c1ccncc1` [pyridine]: the speed of sound reads like this: (293.15 K) 1442 ± 1.8 m/s; (298.15 K) 1417.8 ± 1.8 m/s; (303.15 K) 1398 ± 1.8 m/s; (308.15 K) 1377.1 ± 1.8 m/s. The mass density is, setting by setting: (293.15 K) 983.191 ± 0.23 kg/m3; (298.15 K) 978.249 ± 0.23 kg/m3; (303.15 K) 973.224 ± 0.23 kg/m3; (308.15 K) 968.166 ± 0.23 kg/m3.

(Values after the NIST ThermoML archive (doi:10.1016/j.jct.2012.07.007).)
